Data reported in patent publication US4175081A, “5-Substituted thiadiazole ureas” (priority 1977, dated 1979).

Experiments:
[1] = test system: Crabgrass (CG); assay: Post-emergence herbicide test; assay type: in vivo, Digitaria sanquinalis; conditions: two weeks after treatment; for pest or weed control at 1120.85 g/ha / pest or weed control / pest or weed control at 4483.4 g/ha: Digitaria sanguinalis, post-emergence, 336 h; for pest or weed control at 1120.85 g/ha: 1 lb/acre; for pest or weed control: 2 lb/acre; for pest or weed control at 4483.4 g/ha: 4 lb/acre
Method: (§1) Crabgrass (CG)--Digitaria sanquinalis
(§2) All crop and weed species were planted individually in 3' plastic pots containing potting soil. Four seeds each of corn, cotton, and snapbeans were seeded to a depth equal to the diameter of the seed. All other species were surface seeded and sprinkled with screened soil in an amount sufficient to cover the seed. Immediately after planting, all pots were watered by sub-irrigation in greenhouse trays. Pots for the pre-emergence phase were seeded one day before treatment.
(§3) Planting dates for the post-emergence phase were varied so that all seedlings would reach the desired stage of development simultaneously. The proper stage of seedling development for treatment in the post-emergence phase is as follows:
(§4) Spray hood constants required to deliver the above volume are as follows:
(§5) Formulations for spray applications were prepared in 50 ml volumes with the following three components: […]
(§6) Spray applications were made in a hood containing a removable belt and fixed spray nozzle. For passage through the spray hood, one pot of each specie (pre-emergence phase) was placed on the rear half of the flat. Treatments were removed to the greenhouse after spraying. Watering during the observation period was done only by sub-irrigation.
(§7) Two weeks after treatment, pre- and post-emergence injury or control was visually rated, and the results were as shown in the following tables. Pre-emergence data are provided in TABLE III and post-emergence data are provided in TABLE IV, for compounds having the formula illustrated in TABLE I. Correspondingly, pre-emergence and post-emergence data, respectively, are set forth in TABLES V AND VI, for compounds having the formula illustrated in TABLE II.

[2] = test system: Cotton (CT); assay: Post-emergence herbicide test; assay type: in vivo, Gossypium hirsutum var. DPL smooth leaf; conditions: two weeks after treatment; for pest or weed control at 1120.85 g/ha / pest or weed control at 2241.7 g/ha / pest or weed control at 4483.4 g/ha: Gossypium hirsutum, post-emergence, 336 h; for pest or weed control at 1120.85 g/ha: 1 lb/acre; for pest or weed control at 2241.7 g/ha: 2 lb/acre; for pest or weed control at 4483.4 g/ha: 4 lb/acre
Method: Cotton (CT)--Gossypium hirsutum var. DPL smooth leaf
as §2, §3
Cotton: first true leaf 1' in length; expanded cotyledons.
as §4
(§8) Formulations for spray applications were prepared in 50 ml volumes with the following three components:
(§9) Formulations for the 4 lbs/acre rate were prepared by adjusting the amount of active ingredient accordingly.
as §6, §7

[3] = test system: Barnyard grass (BG); assay: Post-emergence herbicide test; assay type: in vivo; conditions: Echinochloa crus-galli, 336 h, two weeks after treatment; for pest or weed control at 1120.85 g/ha: 1 lb/acre; for pest or weed control at 2241.7 g/ha: 2 lb/acre; for pest or weed control at 4483.4 g/ha: 4 lb/acre
Method: Barnyard grass (BG)--Echinochloa crus-galli
as §2, §3
(§10) Compounds were tested at rates of application equivalent to 8 lbs. of actual compound per acre in a spray volume of 38 gallons per acre. Spray hood constants required to deliver the above volume are as follows:
as §8, §9, §6, §7

[4] = test system: Johnson grass (JG); assay: Post-emergence herbicide test; assay type: in vivo, Sorgum helepense; conditions: Sorghum halepense, 336 h, two weeks after treatment; for pest or weed control at 1120.85 g/ha: 1 lb/acre; for pest or weed control: 2 lb/acre; for pest or weed control at 4483.4 g/ha: 4 lb/acre
Method: Johnson grass (JG)--Sorgum helepense
as §2, §3, §10, §8, §9, §6, §7

[5] = test system: Corn (CN); assay: Post-emergence herbicide test; assay type: in vivo; conditions: Zea mays, 336 h, two weeks after treatment; for pest or weed control at 1120.85 g/ha: 1 lb/acre; for pest or weed control: 2 lb/acre; for pest or weed control at 4483.4 g/ha: 4 lb/acre
Method: as §2, §3, §10, §8, §9, §6, §7

[6] = test system: Bean (BN); assay: Post-emergence herbicide test; assay type: in vivo, Phaseolus vulgaris var. Black Valentine; conditions: two weeks after treatment; for pest or weed control at 1120.85 g/ha / pest or weed control at 2241.7 g/ha / pest or weed control at 4483.4 g/ha: Phaseolus vulgaris, post-emergence, 336 h; for pest or weed control at 1120.85 g/ha: 1 lb/acre; for pest or weed control at 2241.7 g/ha: 2 lb/acre; for pest or weed control at 4483.4 g/ha: 4 lb/acre
Method: Bean (BN)--Phaseolus vulgaris var. Black Valentine
as §2, §3
Beans: primary leaves expanded, growing point at primary leaf nodes.
as §4, §8, §9, §6, §7

[7] = test system: Turnip (TP); assay: Post-emergence herbicide test; assay type: in vivo, Brassica sp.; conditions: two weeks after treatment; for pest or weed control at 1120.85 g/ha / pest or weed control at 2241.7 g/ha / pest or weed control at 4483.4 g/ha: Brassica rapa, post-emergence, 336 h; for pest or weed control at 1120.85 g/ha: 1 lb/acre; for pest or weed control at 2241.7 g/ha: 2 lb/acre; for pest or weed control at 4483.4 g/ha: 4 lb/acre
Method: (§11) Turnip (TP)--Brassica sp.
as §2, §3
Pigweed and turnips: 1 or 2 true leaves above visible cotyledons.
as §4, §5, §6, §7

[8] = test system: Crabgrass (CG); assay: Pre-emergence herbicide test; assay type: in vivo, Digitaria sanquinalis; conditions: two weeks after treatment
Method: as §1, §2, §4, §5, §6, §7

[9] = test system: Turnip (TP); assay: Pre-emergence herbicide test; assay type: in vivo, Brassica sp.; conditions: two weeks after treatment
Method: as §11, §2, §4, §5, §6, §7

Structure (SMILES) | pest or weed control at 2241.7 g/ha [7] | pest or weed control at 4483.4 g/ha [1] | pest or weed control at 4483.4 g/ha [2] | pest or weed control at 4483.4 g/ha [3] | pest or weed control at 4483.4 g/ha [4] | pest or weed control at 4483.4 g/ha [5] | pest or weed control at 4483.4 g/ha [6] | pest or weed control at 4483.4 g/ha [7] | other results
CNC(=O)Nc1nnc(SCC(C)C)s1 [Example 44] | 80% | – | – | – | – | – | – | – | pest or weed control at 1120.85 g/ha [1]: 80%; pest or weed control [1]: 90%; pest or weed control at 1120.85 g/ha [2]: 100%; pest or weed control at 2241.7 g/ha [2]: 100%; pest or weed control at 1120.85 g/ha [3]: 80%; pest or weed control at 2241.7 g/ha [3]: 90%; pest or weed control at 1120.85 g/ha [4]: 60%; pest or weed control [4]: 80%; pest or weed control at 1120.85 g/ha [5]: 60%; pest or weed control [5]: 60%; pest or weed control at 1120.85 g/ha [6]: 80%; pest or weed control at 2241.7 g/ha [6]: 100%; pest or weed control at 1120.85 g/ha [7]: 40%
CCCCSc1nnc(NC(=O)NC)s1 [Example 45] | 70% | – | – | – | – | – | – | – | pest or weed control at 1120.85 g/ha [1]: 90%; pest or weed control [1]: 90%; pest or weed control at 1120.85 g/ha [2]: 100%; pest or weed control at 2241.7 g/ha [2]: 100%; pest or weed control at 1120.85 g/ha [3]: 90%; pest or weed control at 2241.7 g/ha [3]: 80%; pest or weed control at 1120.85 g/ha [4]: 60%; pest or weed control [4]: 90%; pest or weed control at 1120.85 g/ha [5]: 70%; pest or weed control [5]: 60%; pest or weed control at 1120.85 g/ha [6]: 90%; pest or weed control at 2241.7 g/ha [6]: 100%; pest or weed control at 1120.85 g/ha [7]: 50%
CNC(=O)Nc1nnc(SCc2ccccc2)s1 [Example 46] | – | 70% | 100% | 70% | 70% | 30% | 90% | 100% | –
CCCCCCS(=O)(=O)c1nnc(NC(=O)NC)s1 [Example 58] | – | 50% | 50% | 20% | 30% | 20% | 70% | 80% | –
CCCCCSc1nnc(NC(=O)NC)s1 [Example 59] | – | 90% | 100% | 70% | 80% | 40% | 100% | 100% | –
CCCCCCSc1nnc(NC(=O)NC)s1 [Example 60] | 100% | 80% | 70% | 40% | 70% | 60% | 100% | 100% | –
CCCCCS(=O)(=O)c1nnc(NC(=O)NC)s1 [Example 64] | – | 90% | 70% | 60% | 50% | 30% | 90% | 90% | –
CCCCS(=O)(=O)c1nnc(NC(=O)NC)s1 [Example 65] | – | 90% | 70% | 90% | 60% | 30% | 100% | 100% | –
NC(=O)Nc1nnc(C(F)(F)F)s1 [Example 70] | – | – | – | – | – | – | – | – | Post-emergence activity, % control, CG ([1]; 5 lb/acre): 20%; Post-emergence activity, % control, CG ([1]; 10 lb/acre): 20%; Post-emergence activity, % control, CT ([2]; 5 lb/acre): 20%; Post-emergence activity, % control, CT ([2]; 10 lb/acre): 20%; Post-emergence activity, % control, BN ([6]; 5 lb/acre): 50%; Post-emergence activity, % control, BN ([6]; 10 lb/acre): 50%; Post-emergence activity, % control, TP ([7]; 5 lb/acre): 80%; Post-emergence activity, % control, TP ([7]; 10 lb/acre): 80%; Pre-emergence activity, % control, CG ([8]; 5 lb/acre): 10%; Pre-emergence activity, % control, CG ([8]; 10 lb/acre): 10%; Pre-emergence activity, % control, TP ([9]; 5 lb/acre): 10%; Pre-emergence activity, % control, TP ([9]; 10 lb/acre): 10%
